Measured values reported in US20250320213A1, “Nitrogen-Containing Heterocyclic Compounds” (Pfizer Inc., priority 2024, published 2025).

Target: T1, STAT6 (Homo sapiens, UniProt P42226)
T1 construct: stably transfected HaCaT keratinocyte cell line, which expresses NanoLuc luciferase reporter gene under the transcriptional control of the STAT6 responsive promoter; endogenous in cells; host or cells: HaCaT keratinocyte reporter cell line (stably transfected with a NanoLuc reporter)
T1 sequence (P42226 1-847): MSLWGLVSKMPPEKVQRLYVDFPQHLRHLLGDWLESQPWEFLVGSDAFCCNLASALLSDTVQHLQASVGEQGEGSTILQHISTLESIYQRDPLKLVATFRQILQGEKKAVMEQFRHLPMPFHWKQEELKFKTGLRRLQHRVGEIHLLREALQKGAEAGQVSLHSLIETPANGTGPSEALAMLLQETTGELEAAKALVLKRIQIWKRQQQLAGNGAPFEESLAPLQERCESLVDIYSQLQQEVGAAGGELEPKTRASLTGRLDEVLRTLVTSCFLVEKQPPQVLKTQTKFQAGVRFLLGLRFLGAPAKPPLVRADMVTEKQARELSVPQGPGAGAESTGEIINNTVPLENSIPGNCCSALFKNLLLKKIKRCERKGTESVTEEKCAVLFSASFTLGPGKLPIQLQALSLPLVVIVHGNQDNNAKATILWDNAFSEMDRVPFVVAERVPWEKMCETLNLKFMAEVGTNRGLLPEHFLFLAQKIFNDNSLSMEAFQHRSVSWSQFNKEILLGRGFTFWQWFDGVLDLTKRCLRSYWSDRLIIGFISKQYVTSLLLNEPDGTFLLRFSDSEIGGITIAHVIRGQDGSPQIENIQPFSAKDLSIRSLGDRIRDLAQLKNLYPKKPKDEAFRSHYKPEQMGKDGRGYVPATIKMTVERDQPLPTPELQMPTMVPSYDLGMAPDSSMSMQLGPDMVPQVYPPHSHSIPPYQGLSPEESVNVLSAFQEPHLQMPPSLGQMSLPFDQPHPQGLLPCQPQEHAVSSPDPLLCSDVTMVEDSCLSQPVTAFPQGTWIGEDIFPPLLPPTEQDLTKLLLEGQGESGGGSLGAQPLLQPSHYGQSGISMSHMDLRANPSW
Assay: STAT6 Reporter Luciferase Assay (IL-13 stimulated HaCaT keratinocyte NanoLuc reporter cells)
Assay type: cell-based
Settings: IL-13 stimulated HaCaT STAT6 NanoLuc reporter cells; read-out: Reporter EC50
Summary of the method: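 Luminescence from a NanoLuc reporter driven by the STAT6-responsive IL-13Ra2 promoter in HaCaT keratinocytes serves as the read-out. Compounds are given 2 h before a 4 h stimulation with 0.12 nM IL-13.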

| SMILES | EC50 [nM] |
| --- | --- |
| CC(C)n1nc(C(=O)NCc2ccc(NC(=O)N(C)C)cc2)c2c1CCN(c1ccc(C(=O)N3CCn4ncnc4C3)cn1)C2 [Example 367, N-(4-(3,3-dimethylureido)benzyl)-1-isopropyl-5-(5-(5,6,7,8-tetrahydro-[1,2,4]triazolo[1,5-a]pyrazine-7-carbonyl)pyridin-2-yl)-4,5,6,7-tetrahydro-1H-pyrazolo[4,3-c]pyridine-3-carboxamide] | 72 |
| Cc1cc(C)c2c(n1)CN(C(=O)c1ccc(N3CCc4c(c(C(=O)NCc5ccc(NC(=O)N(C)C)cc5)nn4C(C)C)C3)nc1)C2 [Example 368, 5-(5-(2,4-dimethyl-6,7-dihydro-5H-pyrrolo[3,4-b]pyridine-6-carbonyl)pyridin-2-yl)-N-(4-(3,3-dimethylureido)benzyl)-1-isopropyl-4,5,6,7-tetrahydro-1H-pyrazolo[4,3-c]pyridine-3-carboxamide] | 5 |
| Cc1nn(C)c2c1CN(C(=O)c1ccc(N3CCc4c(c(C(=O)NCc5ccc(NC(=O)N(C)C)cc5)nn4C(C)C)C3)nc1)CC2 [Example 369, 5-(5-(1,3-dimethyl-4,5,6,7-tetrahydro-1H-pyrazolo[4,3-c]pyridine-5-carbonyl)pyridin-2-yl)-N-(4-(3,3-dimethylureido)benzyl)-1-isopropyl-4,5,6,7-tetrahydro-1H-pyrazolo[4,3-c]pyridine-3-carboxamide] | 38 |
| CC(C)n1nc(C(=O)NCc2ccc(NC(=O)N(C)C)cc2)c2c1CCN(c1ccc(C(=O)N3Cc4cnc(C5CC5)nc4C3)cn1)C2 [Example 370, 5-(5-(2-cyclopropyl-6,7-dihydro-5H-pyrrolo[3,4-d]pyrimidine-6-carbonyl)pyridin-2-yl)-N-(4-(3,3-dimethylureido)benzyl)-1-isopropyl-4,5,6,7-tetrahydro-1H-pyrazolo[4,3-c]pyridine-3-carboxamide] | 11 |
| CC(C)n1nc(C(=O)NCc2ccc(NC(=O)N(C)C)cc2)c2c1CCN(c1ccc(C(=O)N3CCc4cnn(C)c4C3)cn1)C2 [Example 371, N-(4-(3,3-dimethylureido)benzyl)-1-isopropyl-5-(5-(1-methyl-4,5,6,7-tetrahydro-1H-pyrazolo[3,4-c]pyridine-6-carbonyl)pyridin-2-yl)-4,5,6,7-tetrahydro-1H-pyrazolo[4,3-c]pyridine-3-carboxamide] | 50 |
| CC(C)n1nc(C(=O)NCc2ccc(NC(=O)N(C)C)cc2)c2c1CCN(c1ccc(C(=O)N3CCn4ccnc4C3)cn1)C2 [Example 372, N-(4-(3,3-dimethylureido)benzyl)-1-isopropyl-5-(5-(5,6,7,8-tetrahydroimidazo[1,2-a]pyrazine-7-carbonyl)pyridin-2-yl)-4,5,6,7-tetrahydro-1H-pyrazolo[4,3-c]pyridine-3-carboxamide] | 59 |
| Cc1nnc2n1CCN(C(=O)c1ccc(N3CCc4c(c(C(=O)NCc5ccc(NC(=O)N(C)C)cc5)nn4C(C)C)C3)nc1)C2 [Example 373, N-(4-(3,3-dimethylureido)benzyl)-1-isopropyl-5-(5-(3-methyl-5,6,7,8-tetrahydro-[1,2,4]triazolo[4,3-a]pyrazine-7-carbonyl)pyridin-2-yl)-4,5,6,7-tetrahydro-1H-pyrazolo[4,3-c]pyridine-3-carboxamide] | 540 |
| CC(C)n1nc(C(=O)NCc2ccc(NC(=O)N(C)C)cc2)c2c1CCN(c1ccc(C(=O)N3CCc4ncsc4C3)cn1)C2 [Example 374, N-(4-(3,3-dimethylureido)benzyl)-1-isopropyl-5-(5-(4,5,6,7-tetrahydrothiazolo[5,4-c]pyridine-5-carbonyl)pyridin-2-yl)-4,5,6,7-tetrahydro-1H-pyrazolo[4,3-c]pyridine-3-carboxamide] | 14 |
| CC(C)n1nc(C(=O)NCc2ccc(NC(=O)N(C)C)cc2)c2c1CCN(c1ccc(C(=O)N3CCc4ncccc4C3)cn1)C2 [Example 376, N-(4-(3,3-dimethylureido)benzyl)-1-isopropyl-5-(5-(5,6,7,8-tetrahydro-1,6-naphthyridine-6-carbonyl)pyridin-2-yl)-4,5,6,7-tetrahydro-1H-pyrazolo[4,3-c]pyridine-3-carboxamide] | 10 |
| Cc1cc2n(n1)CCN(C(=O)c1ccc(N3CCc4c(c(C(=O)NCc5ccc(NC(=O)N(C)C)cc5)nn4C(C)C)C3)nc1)C2 [Example 377, N-(4-(3,3-dimethylureido)benzyl)-1-isopropyl-5-(5-(2-methyl-4,5,6,7-tetrahydropyrazolo[1,5-a]pyrazine-5-carbonyl)pyridin-2-yl)-4,5,6,7-tetrahydro-1H-pyrazolo[4,3-c]pyridine-3-carboxamide] | 21 |
| CC(C)n1nc(C(=O)NCc2ccc(NC(=O)N(C)C)cc2)c2c1CCN(c1ccc(C(=O)N3Cc4ccncc4C3)cn1)C2 [Example 378, 5-(5-(2,3-dihydro-1H-pyrrolo[3,4-c]pyridine-2-carbonyl)pyridin-2-yl)-N-(4-(3,3-dimethylureido)benzyl)-1-isopropyl-4,5,6,7-tetrahydro-1H-pyrazolo[4,3-c]pyridine-3-carboxamide] | 15 |
| CC(C)n1nc(C(=O)NCc2ccc(NC(=O)N(C)C)cc2)c2c1CCN(c1ccc(C(=O)N3CCc4ncncc4C3)cn1)C2 [Example 379, N-(4-(3,3-dimethylureido)benzyl)-1-isopropyl-5-(5-(5,6,7,8-tetrahydropyrido[4,3-d]pyrimidine-6-carbonyl)pyridin-2-yl)-4,5,6,7-tetrahydro-1H-pyrazolo[4,3-c]pyridine-3-carboxamide] | 70 |
| CC(C)n1nc(C(=O)NCc2ccc(NC(=O)N(C)C)cc2)c2c1CCN(c1ccc(C(=O)N3CCn4cnnc4C3)cn1)C2 [Example 380, N-(4-(3,3-dimethylureido)benzyl)-1-isopropyl-5-(5-(5,6,7,8-tetrahydro-[1,2,4]triazolo[4,3-a]pyrazine-7-carbonyl)pyridin-2-yl)-4,5,6,7-tetrahydro-1H-pyrazolo[4,3-c]pyridine-3-carboxamide] | 538 |
| Cc1c2c(nn1C)CCN(C(=O)c1ccc(N3CCc4c(c(C(=O)NCc5ccc(NC(=O)N(C)C)cc5)nn4C(C)C)C3)nc1)C2 [Example 381, 5-(5-(2,3-dimethyl-4,5,6,7-tetrahydro-2H-pyrazolo[4,3-c]pyridine-5-carbonyl)pyridin-2-yl)-N-(4-(3,3-dimethylureido)benzyl)-1-isopropyl-4,5,6,7-tetrahydro-1H-pyrazolo[4,3-c]pyridine-3-carboxamide] | 33 |
| Cc1ncc2n1CCN(C(=O)c1ccc(N3CCc4c(c(C(=O)NCc5ccc(NC(=O)N(C)C)cc5)nn4C(C)C)C3)nc1)C2 [Example 382, N-(4-(3,3-dimethylureido)benzyl)-1-isopropyl-5-(5-(3-methyl-5,6,7,8-tetrahydroimidazo[1,5-a]pyrazine-7-carbonyl)pyridin-2-yl)-4,5,6,7-tetrahydro-1H-pyrazolo[4,3-c]pyridine-3-carboxamide] | 137 |
| CC(C)n1nc(C(=O)NCc2ccc(NC(=O)N(C)C)cc2)c2c1CCN(c1ccc(C(=O)N3CCc4nocc4C3)cn1)C2 [Example 383, N-(4-(3,3-dimethylureido)benzyl)-1-isopropyl-5-(5-(4,5,6,7-tetrahydroisoxazolo[4,3-c]pyridine-5-carbonyl)pyridin-2-yl)-4,5,6,7-tetrahydro-1H-pyrazolo[4,3-c]pyridine-3-carboxamide] | 49 |
| CC(C)n1nc(C(=O)NCc2ccc(NC(=O)N(C)C)cc2)c2c1CCN(c1ccc(C(=O)N3Cc4cn(C)nc4C3)cn1)C2 [Example 385, N-(4-(3,3-dimethylureido)benzyl)-1-isopropyl-5-(5-(2-methyl-2,4,5,6-tetrahydropyrrolo[3,4-c]pyrazole-5-carbonyl)pyridin-2-yl)-4,5,6,7-tetrahydro-1H-pyrazolo[4,3-c]pyridine-3-carboxamide] | 4 |
| CC(C)n1nc(C(=O)NCc2ccc(NC(=O)N(C)C)cc2)c2c1CCN(c1ccc(C(=O)N3CCn4nc(C#N)cc4C3)cn1)C2 [Example 386, 5-(5-(2-cyano-4,5,6,7-tetrahydropyrazolo[1,5-a]pyrazine-5-carbonyl)pyridin-2-yl)-N-(4-(3,3-dimethylureido)benzyl)-1-isopropyl-4,5,6,7-tetrahydro-1H-pyrazolo[4,3-c]pyridine-3-carboxamide] | 56 |
| COc1cccc2c1CN(C(=O)c1ccc(N3CCc4c(c(C(=O)NCc5ccc(NC(=O)N(C)C)cc5)nn4C(C)C)C3)nc1)C2 [Example 387, N-(4-(3,3-dimethylureido)benzyl)-1-isopropyl-5-(5-(4-methoxyisoindoline-2-carbonyl)pyridin-2-yl)-4,5,6,7-tetrahydro-1H-pyrazolo[4,3-c]pyridine-3-carboxamide] | 3 |
